# In patent US10328022B2, “Formulations and methods for vaginal delivery of antiprogestins” (REPROS THERAPEUTICS INC., priority 2012, dated 2019):
# Legend:
# [1] = system: New Zealand White rabbits; experiment: Cumulative vaginal mucous membrane irritancy, 10 daily intravaginal doses; type: in vivo, rabbit
# Protocol: Pullulan capsules (Capsugel NPcaps®, size 0) comprising CDB-4124 were administered once daily for 10 consecutive days intravaginally to 10 healthy virgin female New Zealand White rabbits in order to determine the cumulative vaginal mucous membrane irritancy potential and to obtain plasma samples for pharmacokinetic analysis. Five rabbits were assigned to each of two groups, the first dosed with vehicle control (pullulan capsules with 0.5 ml PEG 1000 fill) introduced into the upper vaginal vault of each rabbit using a syringe applicator (Group 1), the second with CDB-4124 (pullulan capsules with 12 mg CDB-4124 in 0.5 ml PEG 1000)(Group 2). The external vaginal mucosa of each animal was examined for erythema, edema and discharge prior to the initial dose, immediately prior to each treatment and prior to sacrifice. All animals were examined for gross pathology.
# [2] = Pharmacokinetics of vaginal pullulan capsules with 12 mg CDB-4124 in women; type: in vivo, human
# Protocol: (§1) Capsugel NPcaps® were filled with the excipient fill formulations described above with 12 mg CDB-4124 (telapristone acetate) and administered vaginally to human females with uterine fibroids once per day for a period of 2 weeks to determine the length of time required to reach steady state and overall systemic exposure of the parent compound (CDB-4124) and the primary metabolite (CDB-4453). The capsules were administered using a commercially available vaginal applicator modified by reversing the insert (see FIG. 5). The unmodified applicator comprises a barrel and plunger with the barrel having a relatively wide opening on one end and a relatively narrow opening on the other end. The applicator is designed such that the drug is placed in the end with the larger diameter opening (entrance end), the applicator is inserted into the vagina and the plunger is used to push the drug out the barrel and into the vagina. For insertion of the filled NPcaps, the shell end of the capsule (having a […] diameter) was placed into the narrow opening in the barrel, leaving the cap exposed. […] Pharmacokinetic data was then obtained from patients.
# [3] = system: human females with uterine fibroids; experiment: Vaginal administration of pullulan capsules with 12 mg CDB-4124: menses and fibroid symptoms; type: in vivo
# Protocol: as §1
# (§2) In a previous oral study, doses of 1, 3, 6, 9 and 12 mg of CDB-4124 were administered for a period of 10 weeks. […] Cessation of menses directly correlates to efficacy of an oral dose in both uterine fibroids and endometriosis. […] Given the overall low exposure of the 12 mg dose, in those women that continued to menstruate, further improvements in reduction of symptoms are expected with longer exposure to the drug. In efficacy studies in which CDB-4124 was administered orally, women experienced a nearly 50% reduction in mean fibroid size at a 25 mg dose. When those women were then escalated to a 50 mg oral dose for an additional four months, fibroid size was reduced to approximately 25% of the initial volume. Based on the assessment of fibroid symptoms as scored by UFSQOL, women on oral CDB-4124 were, in general, symptom free.
# [4] = system: human females with uterine fibroids; experiment: Previous oral study of CDB-4124, 1, 3, 6, 9 and 12 mg for 10 weeks; type: in vivo
# Protocol: as §2
# [5] = system: uterine fibroids; experiment: Oral efficacy studies of CDB-4124, 25 mg then 50 mg; type: in vivo, human
# Protocol: as §2
# [6] = 12 mg intravaginally once daily for 10 days
# [7] = 12 mg vaginal, pair-wise comparison of 6 women
smiles,measurement,setting,value
"COCC(=O)[C@@]1(OC(C)=O)CC[C@H]2[C@@H]3CCC4=CC(=O)CCC4=C3[C@@H](c3ccc(N(C)C)cc3)C[C@@]21C [CDB-4124, 21-methoxy-17α-acetoxy-11β-(4 N,N-dimethylaminophenyl)-19-norpregna-4,9-diene-3,20-dione]","External vaginal mucosa: erythema, edema",[1]; 12 mg CDB-4124 in pullulan capsule intravaginally once daily for 10 days,⅖ rabbits showed very slight erythema and/or edema on 4 occasions
same,"Gross findings in ovaries, uterus, three sections of the vagina",[1]; [6],No gross findings
same,Histopathological findings,[1]; [6],nor were any histopathological findings observed
same,Irritation index,[1]; [6],none
same,Drug peak after steady state,"[2]; 12 mg vaginal once per day, women",no obvious drug peak
same,"Systemic exposure relative to an equivalent oral dose, based on AUC","[2]; 12 mg vaginal versus 12 mg oral, women",about ⅙
same,Cmax compared with oral doses,"[2]; 12 mg vaginal versus 1, 3, 6, 9, 12 mg oral, women",lower than any of the oral doses
same,Release profile from pullulan capsules,"[2]; 12 mg vaginal, steady state, 24 hour period, women",continuous release of active agents at a substantially constant rate
same,Exposure compared with the 1 mg oral dose,"[2]; 12 mg vaginal, women",only a fraction of the exposure of the ineffective 1 mg oral dose
same,Maximum exposure relative to the 50 mg oral dose,"[2]; 12 mg vaginal, women",1/100
same,Time to steady state concentration,"[2]; women with uterine fibroids, 12 mg vaginal pullulan capsule once per day",one
same,"Cessation of menses, number of women","[3]; 12 mg vaginal once per day, 6 women",3 women
same,Fibroid related condition,"[3]; 12 mg vaginal, after only 4 weeks of treatment",significant improvements
same,"Reduction in menstrual bleeding, Pictorial Blood Loss Assessment Chart (PBAC)",[3]; [7],Statistical significance (p<0.05)
same,"Reduction in overall uterine fibroid symptoms, Uterine Fibroid Symptom Quality of Life Survey (UFSQOL)",[3]; [7],Statistical significance (p<0.05)
same,Efficacy of the 1 mg oral dose,[4]; oral 1 mg,ineffective
same,Tolerability,"[4]; oral 1, 3, 6, 9 and 12 mg for 10 weeks",all doses were well tolerated
same,Lowest dose inducing reliable cessation of menses,"[4]; oral, 10 weeks",3 mg
same,Fibroid size as share of the initial volume,[5]; escalated to 50 mg oral dose for an additional four months,approximately 25%
same,Reduction in mean fibroid size,[5]; oral 25 mg dose,~50%
same,Fibroid symptoms as scored by UFSQOL,[5]; oral CDB-4124,symptom free
